Measurements from publication PMC9237828, “Chemically Tuning Resveratrol for the Effective Killing of Gram-Positive Pathogens” (Journal of Natural Products, 2022).
≈ marks a conversion by molar mass, not a printed value. Read-outs that look alike come from different tables or passages of the source.

Key:
S.aureus LMG15975 = experiment: microbe, parasite or virus in culture; assay type: cell-based, Staphylococcus aureus; conditions: for MIC: Staphylococcus aureus, LMG15975, 20 h, read-out: Minimal Inhibition Concentration (MIC) S.aureus LMG15975
B. cereus ATCC10987 [1] = experiment: microbe, parasite or virus in culture; assay type: cell-based, Bacillus cereus; conditions: for MIC: Bacillus cereus, ATCC10987, 20 h, read-out: Minimal Inhibition Concentration (MIC) B. cereus ATCC10987
E. faecalis LMG16216 = experiment: microbe, parasite or virus in culture; assay type: cell-based, Enterococcus faecalis; conditions: for MIC: Enterococcus faecalis, LMG16216, 20 h, read-out: Minimal Inhibition Concentration (MIC) E. faecalis LMG16216
C. botulinum CECT551 = experiment: microbe, parasite or virus in culture; assay type: cell-based; conditions: for Minimal Inhibition Concentration (MIC) C. botulinum CECT551: Table 1, 128 to 2 μM, RCM medium, anaerobic, 24 h; for MIC: Clostridium botulinum, CECT551, 24 h, read-out: Minimal Inhibition Concentration (MIC) C. botulinum CECT551
C. perfringens CECT376 = experiment: microbe, parasite or virus in culture; assay type: cell-based; conditions: for MIC: Clostridium perfringens, CECT376, 24 h, read-out: Minimal Inhibition Concentration (MIC) C. perfringens CECT376
S.aureus LMG10147 = experiment: microbe, parasite or virus in culture; assay type: cell-based, Staphylococcus aureus; conditions: for MIC: Staphylococcus aureus, LMG10147, 20 h, read-out: Minimal Inhibition Concentration (MIC) S.aureus LMG10147
B. cereus ATCC14579 = experiment: microbe, parasite or virus in culture; assay type: cell-based, Bacillus cereus; conditions: for MIC: Bacillus cereus, ATCC14579, 20 h, read-out: Minimal Inhibition Concentration (MIC) B. cereus ATCC14579
C. difficile CECT531 = experiment: microbe, parasite or virus in culture; assay type: cell-based, Clostridioides difficile; conditions: for MIC: Clostridioides difficile, CECT531, 24 h, read-out: Minimal Inhibition Concentration (MIC) C. difficile CECT531
E. faecium LMG16003 = experiment: microbe, parasite or virus in culture; assay type: cell-based; conditions: for MIC: Enterococcus faecium, LMG16003, 20 h, read-out: Minimal Inhibition Concentration (MIC) E. faecium LMG16003
S.aureus LMG8224 = experiment: microbe, parasite or virus in culture; assay type: cell-based, Staphylococcus aureus; conditions: for MIC: Staphylococcus aureus, LMG8224, 20 h, read-out: Minimal Inhibition Concentration (MIC) S.aureus LMG8224
C. tetani CECT4629 = experiment: microbe, parasite or virus in culture; assay type: cell-based; conditions: for Minimal Inhibition Concentration (MIC) C. tetani CECT4629: Table 1, 128 to 2 μM, RCM medium, anaerobic, 24 h; for MIC: Clostridium tetani, CECT4629, 24 h, read-out: Minimal Inhibition Concentration (MIC) C. tetani CECT4629
E. faecium LMG11423 = experiment: microbe, parasite or virus in culture; assay type: cell-based; conditions: for MIC: Enterococcus faecium, LMG11423, 20 h, read-out: Minimal Inhibition Concentration (MIC) E. faecium LMG11423
E. faecalis V583 = experiment: microbe, parasite or virus in culture; assay type: cell-based, Enterococcus faecalis; conditions: for MIC: Enterococcus faecalis, V583, 20 h, read-out: Minimal Inhibition Concentration (MIC) E. faecalis V583
C. beijerinckii B504 = experiment: MIC test, anaerobes; assay type: cell-based; conditions: for Minimal Inhibition Concentration (MIC) C. beijerinckii B504: Table 1, 128 to 2 μM, RCM medium, anaerobic, 24 h; for MIC: Clostridium beijerinckii, B504, 24 h, read-out: Minimal Inhibition Concentration (MIC) C. beijerinckii B504
Protocol: (§1) The resveratrol derivatives were serially diluted in cMHB (BD Difco) in 96-well microplates. Plates were then inoculated with the indicator bacteria at a final concentration of 5 × 10^5 CFU/mL and incubated at 37 °C for 20 h. In the case of the anaerobic bacteria (Clostridium and Clostridioides), the test was performed following the recommendation of CLSI for anaerobes[77] but using RCM medium instead of cMHB. The cultures were cultivated inside an anaerobic chamber at 37 °C for 24 h. All the tests were performed in triplicate.

C. ihumii AP5 = experiment: MIC test, anaerobes; assay type: cell-based; conditions: 24 h; for MIC: read-out: Minimal Inhibition Concentration (MIC) C. ihumii AP5
Protocol: as §1

E. faecalis LMG08222 = experiment: microbe, parasite or virus in culture; assay type: cell-based, Enterococcus faecalis; conditions: for MIC: Enterococcus faecalis, LMG08222, 20 h, read-out: Minimal Inhibition Concentration (MIC) E. faecalis LMG08222
B. cereus ATCC10987 [2] = experiment: Effect of the compounds on actively growing bacteria (lysis, OD600); assay type: cell-based, Bacillus cereus; conditions: 2×, 1×, and 0.5× the MIC added at mid exponential phase
[3] = test system: B. cereus ATCC 10987, E. faecalis V583, E. faecium LMG 16003, and S. aureus LMG 8224; assay type: cell-based; conditions: 2-fold the MIC, 24 h, cMHB
in vitro = conditions: human
E. coli LMG8224 = experiment: Outer membrane permeabilization test (MIC with or without L-11 peptide); conditions: for MIC: Escherichia coli, LMG8224, read-out: MIC (μM) L-11 + 0 μM; for MIC (μM) L-11 + 4 μM: presence of 4 μM L-11 outer-membrane-perturbing peptide
[4] = test system: panel of aerobic and anaerobic Gram-positive bacteria; experiment: organism not typed; assay type: cell-based
B. cereus ATCC10987 [5] = experiment: Intracellular ATP level quantification (BacTiter-Glo); conditions: 32 μM of the compounds (100 μM for CCCP), 30, 60, and 120 min, 37 °C
[6] = Table 1, 128 to 2 μM, RCM medium, anaerobic

Compound	Minimal Inhibition Concentration (MIC) S.aureus LMG15975 (S.aureus LMG15975)	Minimal Inhibition Concentration (MIC) B. cereus ATCC10987 (B. cereus ATCC10987 [1])	Minimal Inhibition Concentration (MIC) E. faecalis LMG16216 (E. faecalis LMG16216)	Minimal Inhibition Concentration (MIC) C. botulinum CECT551 (C. botulinum CECT551)	Minimal Inhibition Concentration (MIC) C. perfringens CECT376 (C. perfringens CECT376)	MIC (S.aureus LMG15975)	MIC (B. cereus ATCC10987 [1])	MIC (E. faecalis LMG16216)	MIC (C. botulinum CECT551)	MIC (C. perfringens CECT376)	MIC (S.aureus LMG10147)	MIC (B. cereus ATCC14579)	MIC (C. difficile CECT531)	MIC (S.aureus LMG8224)	MIC (E. faecalis V583)	MIC (C. beijerinckii B504)	MIC (C. ihumii AP5)	MIC (E. faecalis LMG08222)	MIC (E. coli LMG8224)	MIC (μM) L-11 + 4 μM (E. coli LMG8224)	also measured
3-butyl resveratrol [compound 9]	32 ± 0 µM	32 ± 0 µM	128 ± 0 µM	32 ± 0 µM	64 ± 0 µM																Minimal Inhibition Concentration (MIC) S.aureus LMG10147 (S.aureus LMG10147): 64 ± 0 µM; Minimal Inhibition Concentration (MIC) B. cereus ATCC14579 (B. cereus ATCC14579): 32 ± 0 µM; Minimal Inhibition Concentration (MIC) C. difficile CECT531 (C. difficile CECT531): 64 ± 0 µM; Minimal Inhibition Concentration (MIC) E. faecium LMG16003 (E. faecium LMG16003): 128 ± 0 µM; Minimal Inhibition Concentration (MIC) S.aureus LMG8224 (S.aureus LMG8224): 64 ± 0 µM; Minimal Inhibition Concentration (MIC) C. tetani CECT4629 (C. tetani CECT4629): 16 ± 0 µM; Minimal Inhibition Concentration (MIC) E. faecium LMG11423 (E. faecium LMG11423): 64 ± 0 µM; Minimal Inhibition Concentration (MIC) E. faecalis V583 (E. faecalis V583): 128 ± 0 µM; Minimal Inhibition Concentration (MIC) C. beijerinckii B504 (C. beijerinckii B504): 26.6 ± 5.3 µM; Minimal Inhibition Concentration (MIC) C. ihumii AP5 (C. ihumii AP5; [6]): 64 ± 0 µM; Minimal Inhibition Concentration (MIC) E. faecalis LMG08222 (E. faecalis LMG08222): 128 ± 0 µM
CC(C)[Si](Oc1ccc(/C=C/c2cc(O)cc(O)c2)cc1)(C(C)C)C(C)C [compound 33]						128 µM (≈ 49.2 µg/mL)	32 µM (≈ 12.3 µg/mL)	8 µM (≈ 3.08 µg/mL)	10.7 ± 2.6 µM (≈ 4.12 µg/mL)	26.6 ± 5.3 µM (≈ 10.2 µg/mL)	128 µM (≈ 49.2 µg/mL)	26.6 ± 5.3 µM (≈ 10.2 µg/mL)	16 µM (≈ 6.15 µg/mL)	128 µM (≈ 49.2 µg/mL)	21.3 ± 5.3 µM (≈ 8.19 µg/mL)	21.3 ± 5.3 µM (≈ 8.19 µg/mL)	13.3 ± 2.6 µM (≈ 5.12 µg/mL)	8 µM (≈ 3.08 µg/mL)	> 128 µM	21.3 ± 5.3 µM	lysis of actively growing cells (B. cereus ATCC10987 [2]): most effective derivatives lysing the cells; bactericidal/bacteriostatic effect [3]: bactericidal; IC50 (in vitro): 2.8 ± 0.2 µM; MIC (E. faecium LMG16003): 5.3 ± 1.3 µM (≈ 2.04 µg/mL); MIC (C. tetani CECT4629): 6.7 ± 1.3 µM (≈ 2.58 µg/mL); MIC (E. faecium LMG11423): 16 µM (≈ 6.15 µg/mL)
3-tert-Butyldimethylsilyl resveratrol [compound 16]	16 ± 0 µM	16 ± 0 µM	16 ± 0 µM	16 µM	32 µM																Minimal Inhibition Concentration (MIC) S.aureus LMG10147 (S.aureus LMG10147): 16 ± 0 µM; Minimal Inhibition Concentration (MIC) B. cereus ATCC14579 (B. cereus ATCC14579): 16 ± 0 µM; IC50 (MRC5 cells): 2.7 ± 0.3 µM; Minimal Inhibition Concentration (MIC) C. difficile CECT531 (C. difficile CECT531): 26.6 ± 5.3 µM; Minimal Inhibition Concentration (MIC) E. faecium LMG16003 (E. faecium LMG16003): 16 ± 0 µM; Minimal Inhibition Concentration (MIC) S.aureus LMG8224 (S.aureus LMG8224): 16 ± 0 µM; Minimal Inhibition Concentration (MIC) C. tetani CECT4629 (C. tetani CECT4629): 6.6 ± 1.3 µM; Minimal Inhibition Concentration (MIC) E. faecium LMG11423 (E. faecium LMG11423): 16 ± 0 µM; Minimal Inhibition Concentration (MIC) E. faecalis V583 (E. faecalis V583): 16 ± 0 µM; Minimal Inhibition Concentration (MIC) C. beijerinckii B504 (C. beijerinckii B504): 26.6 ± 5.3 µM; MIC (C. ihumii AP5; [6]): 32 µM; Minimal Inhibition Concentration (MIC) E. faecalis LMG08222 (E. faecalis LMG08222): 8 ± 0 µM
COc1cc(/C=C/c2ccc(O[C@@H]3O[C@H](C(=O)O)[C@@H](O)[C@H](O)[C@H]3O)cc2)cc(OC)c1 [compound 30, PTER glucuronate]						32 µM (≈ 13.8 µg/mL)	16 µM (≈ 6.92 µg/mL)	128 µM (≈ 55.4 µg/mL)	4 µM (≈ 1.73 µg/mL)	5.3 ± 1.3 µM (≈ 2.29 µg/mL)	32 µM (≈ 13.8 µg/mL)	13.3 ± 2.6 µM (≈ 5.75 µg/mL)	13.3 ± 2.6 µM (≈ 5.75 µg/mL)	32 µM (≈ 13.8 µg/mL)	128 µM (≈ 55.4 µg/mL)	10.7 ± 2.6 µM (≈ 4.63 µg/mL)	8 µM (≈ 3.46 µg/mL)	64 µM (≈ 27.7 µg/mL)	> 128 µM	16 ± 0 µM	MIC [4]: < 16 µM; MIC (C. tetani CECT4629): 4 µM (≈ 1.73 µg/mL)
N#CC(C#N)=NNc1cccc(Cl)c1 [CCCP, carbonyl cyanide m-chlorophenyl hydrazone]																					intracellular ATP levels (B. cereus ATCC10987 [5]): a time reduction of these levels was observed
CCCCCCCCCCCC(=O)OC[C@H]1O[C@@H](Oc2cc(O)cc(/C=C/c3ccc(O)cc3)c2)[C@H](O)[C@@H](O)[C@@H]1O [compound 4]						16 µM (≈ 9.16 µg/mL)	8 µM (≈ 4.58 µg/mL)	64 µM (≈ 36.7 µg/mL)	8 µM (≈ 4.58 µg/mL)	32 µM (≈ 18.3 µg/mL)	16 µM (≈ 9.16 µg/mL)	8 µM (≈ 4.58 µg/mL)	128 µM (≈ 73.3 µg/mL)	16 µM (≈ 9.16 µg/mL)	53.3 ± 10.6 µM (≈ 30.5 µg/mL)	16 µM (≈ 9.16 µg/mL)	32 µM (≈ 18.3 µg/mL)	32 µM (≈ 18.3 µg/mL)	> 128 µM	6.6 ± 1.3 µM	MIC [4]: 8 to 16 µM (≈ 4.58 to 9.16 µg/mL); MIC (E. faecium LMG16003): 53.3 ± 10.6 µM (≈ 30.5 µg/mL); MIC (E. faecium LMG11423): 53.3 ± 10.6 µM (≈ 30.5 µg/mL)
